Drawing on ChEMBL document CHEMBL1121960, “Importance of the aromatic ring in adrenergic amines. 8. 2-(Aminomethyl)-trans-2-decalols as inhibitors of norepinephrine N-methyltransferase” (J Med Chem, 1982), this text covers Ki, Vmax and Km for four molecules.

The target of series [1] is T1, Phenylethanolamine N-methyltransferase (Bos taurus, UniProt P10938).
T1 sequence (P10938 whole entry): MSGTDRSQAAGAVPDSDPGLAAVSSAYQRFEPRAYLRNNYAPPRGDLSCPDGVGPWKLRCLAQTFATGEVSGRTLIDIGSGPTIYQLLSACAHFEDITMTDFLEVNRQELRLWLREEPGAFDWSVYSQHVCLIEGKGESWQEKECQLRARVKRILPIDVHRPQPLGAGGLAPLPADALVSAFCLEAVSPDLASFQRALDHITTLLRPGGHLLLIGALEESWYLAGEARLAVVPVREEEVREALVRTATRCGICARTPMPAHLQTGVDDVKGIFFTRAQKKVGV
In words: Tested for inhibitory activity against bovine adrenal norepinephrine N-methyl-transferase using phenylethanolamine as substrate.

A short description of series [2]: Vmax was determined. In kind it is ADME.
Compound in series [3]: NCC1(O)CCCCCCCCCC1
The experiment in a line: (§1) Tested for inhibitory constant against bovine adrenal norepinephrine N-methyl-transferase.

Compound in series [4]: NC[C@]1(O)CCC2CCCCC2C1
The series is described as §1.

Compound in series [5]: NC[C@@]1(O)CCC2CCCCC2C1
The description is as §1.

In series [1], `NC[C@]1(O)CCC2CCCCC2C1` (some centres undefined) showed an inhibition constant (Ki) of 3.8 µM. Moreover, in series [2], the maximum rate (Vmax) came to 0.024 nmol/min/mg.
The corresponding values for `NC[C@@]1(O)CCC2CCCCC2C1` (some centres undefined) are 5.63 µM and 0.03 nmol/min/mg.
For the molecule `NCC1(O)CCCCCCCCCC1`, the Ki in series [1] is 3.56 µM. In series [2], the Vmax came to 0.04 nmol/min/mg.

B1: Phenylethanolamine N-methyltransferase (Bos taurus), P10938 (protein)
chain: T1 sequence (P10938 whole entry)
B1: the Km in series [3] came out at 6.8 µM; in series [4], 5.7 µM; in series [5], 4.7 µM.

The term Ki denotes a measure of affinity in units of concentration, obtained from inhibition or displacement. Low values mean a stronger hold on the target, high ones a looser hold on the target. By Vmax is commonly meant the top rate of the reaction or transport when substrate is in excess. Broadly, the Km is the substrate concentration at which the rate is half of its maximum.
